IC50 and Alpha max data for eight compounds are collected here from ChEMBL document CHEMBL1777785, “A novel approach for predicting P-glycoprotein (ABCB1) inhibition using molecular interaction fields” (J Med Chem, 2011).

pIC50: −log10 of the molar value.

T1 sequence (P08183 whole entry): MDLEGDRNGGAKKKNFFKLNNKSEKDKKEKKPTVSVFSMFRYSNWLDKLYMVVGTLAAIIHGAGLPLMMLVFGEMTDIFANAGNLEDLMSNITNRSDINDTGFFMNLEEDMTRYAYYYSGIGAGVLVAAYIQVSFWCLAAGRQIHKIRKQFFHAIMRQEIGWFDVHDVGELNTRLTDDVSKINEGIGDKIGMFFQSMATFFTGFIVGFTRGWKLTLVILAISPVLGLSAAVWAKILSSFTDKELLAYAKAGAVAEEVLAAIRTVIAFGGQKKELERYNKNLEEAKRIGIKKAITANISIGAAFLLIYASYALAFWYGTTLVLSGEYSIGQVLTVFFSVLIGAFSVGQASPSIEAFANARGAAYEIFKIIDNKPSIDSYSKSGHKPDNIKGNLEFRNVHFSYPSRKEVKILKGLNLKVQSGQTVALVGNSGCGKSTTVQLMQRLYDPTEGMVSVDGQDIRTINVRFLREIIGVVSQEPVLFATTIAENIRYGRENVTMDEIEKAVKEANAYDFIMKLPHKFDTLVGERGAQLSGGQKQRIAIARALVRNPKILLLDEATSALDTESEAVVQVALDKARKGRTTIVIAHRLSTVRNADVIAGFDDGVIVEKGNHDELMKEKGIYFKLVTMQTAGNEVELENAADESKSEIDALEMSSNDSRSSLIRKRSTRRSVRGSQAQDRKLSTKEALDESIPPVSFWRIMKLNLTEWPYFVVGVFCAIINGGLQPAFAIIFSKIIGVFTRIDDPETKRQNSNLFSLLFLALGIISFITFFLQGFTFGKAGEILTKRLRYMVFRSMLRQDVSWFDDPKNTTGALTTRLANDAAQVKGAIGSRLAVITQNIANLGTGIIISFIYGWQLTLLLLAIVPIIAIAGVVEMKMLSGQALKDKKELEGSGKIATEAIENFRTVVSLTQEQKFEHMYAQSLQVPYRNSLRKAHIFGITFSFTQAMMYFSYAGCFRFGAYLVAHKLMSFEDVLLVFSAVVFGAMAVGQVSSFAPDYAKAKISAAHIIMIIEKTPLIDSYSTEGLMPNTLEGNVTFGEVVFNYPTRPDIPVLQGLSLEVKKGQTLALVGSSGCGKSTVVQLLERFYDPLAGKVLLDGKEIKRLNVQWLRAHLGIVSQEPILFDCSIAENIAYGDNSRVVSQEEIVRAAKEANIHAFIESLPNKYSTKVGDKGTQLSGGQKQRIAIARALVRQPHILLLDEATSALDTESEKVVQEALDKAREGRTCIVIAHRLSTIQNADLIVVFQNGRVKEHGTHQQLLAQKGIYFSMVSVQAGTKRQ

One data set has as its target T1, ATP-dependent translocase ABCB1 (Homo sapiens, UniProt P08183).
Conditions: not given
The pIC50 is −log10 of the IC50, conventionally taken in molar units. Compound `O=C1NCCN1CCN1CCC(c2cn(-c3ccc(F)cc3)c3ccc(Cl)cc23)CC1` [SERTINDOLE] showed a pIC50 of 5.19.

For the next data set, the target named is T1, ATP-dependent translocase ABCB1. As to conditions: l5178, 20 min, 100 µM.
Take `C=CCc1ccccc1OCC(O)CNC(C)C` (centres undefined) [ALPRENOLOL]: the Alpha max was 0.05.

Turning to `CCN(CC)CCCN(c1ccccc1)C1Cc2ccccc2C1` [APRINDINE], the Alpha max worked out at 0.16.

With `O=C1CCc2ccc(OCCCCN3CCN(c4cccc(Cl)c4Cl)CC3)cc2N1` [ARIPIPRAZOLE], the Alpha max came out at 0.99.

As to `CC(C)[C@H]1CC[C@H](C(=O)N[C@H](Cc2ccccc2)C(=O)O)CC1` [NATEGLINIDE], the Alpha max was 0.

With `CCOc1cc(CC(=O)N[C@@H](CC(C)C)c2ccccc2N2CCCCC2)ccc1C(=O)O` [REPAGLINIDE], the Alpha max is reported as 0.35.

Compound `O=C1NCCN1CCN1CCC(c2cn(-c3ccc(F)cc3)c3ccc(Cl)cc23)CC1` [SERTINDOLE] registered an Alpha max of 0.74.

As to `CC1(C)S[C@@H]2[C@H](NC(=O)[C@H](C(=O)O)c3ccsc3)C(=O)N2[C@H]1C(=O)O` [TICARCILLIN], the Alpha max came out at 0.

Take `O=C1Cc2cc(CCN3CCN(c4nsc5ccccc45)CC3)c(Cl)cc2N1` [ZIPRASIDONE]: the Alpha max stood at 0.19.
